Reference: patent US4450292A, “Derivatives of phenyl aliphatic carboxylic acids, and use thereof in treating gastric and gastro-duodenal ailments” (Roussel Uclaf, priority 1981, dated 1984)
Structures can show the parent of a compound that is named as a salt.

How the values were obtained:
Type in all cases: in vivo
[1] = system: ulcers in rats at the level of the stomach; test: Anti-ulcer activity, SHAY technique (ligating of the pylorus); settings: by mouth, about 16 hours after treatment
Source text: (1) Determination of the anti-ulcer activity of the compounds of Examples 1 to 4
The technique used is described by SHAY et al in Gastroenterology, 5, 43, (1945).
SHAY'S technique consists in inducing ulcers in rats at the level of the stomach by ligating of the pylorus.
The animals are anesthetized with ether. A longitudinal incision is made about 1 cm below the sternum, the glandular portion of the stomach and the duodenum are exposed and a ligature is applied a few millimeters below the pylorus. The muscular layer is left as is and the skin is sutured by two clips.
The animals immediately receive the dispersant or the substance to be studied by mouth in a volume of 0.5 cc per hundred grams and are kept without food or drink until sacrificed by carotic venesection, effected about 16 hours after the treatment.
Before removing the stomach, a ligature is placed around the cardia.
The gastric fluid is collected in order to measure the pH thereof.
The stomach is then opened along the greater curvature, rinsed in physiological serum and spread out on millimeter paper in order to be examined under a binocular lens.
The seriousness of the lesions is evaluated macroscopically, being rated from 0 to 4 for each stomach.
For each lot of rats the average intensity of the ulcerations is determined and the protection calculated by referring the average index of the group to the average index of the control group.
The pH values of the gastric liquid are also determined for the treated animals and the control animals.

[2] = Acute toxicity, LD50 lethal dose after oral administration to mice; settings: mouse, in vivo, po, orally
Description: (§1) (3) Determination of the acute toxicity
(§2) The LD50 lethal dose of the derivatives of Examples 1 to 9 after administration orally to mice was evaluated.

gastric fluid = test: Anti-ulcer activity, SHAY technique as modified by P. H. Guth (pylorus ligature plus aspirin), pH of the gastric fluid; settings: rats, orally, aspirin 200 mg/kg
Description: (2) Determination of the anti-ulcer activity of the compounds of Examples 7 and 8
The technique used is described by SHAY et al in Gastroenterology, 5, 43 (1945) as modified by P. H. Guth in Gastroenterology, 76, 88 (1976).
After 48 hours fast, rats receive the dispersant or the substance to be studied orally in a volume of 1 cc/100 g.
One hour later the animals are anesthetized with ether. A longitudinal incision is made about 1 cm below the sternum, the glandular part of the stomach and the duodenum are exposed and a ligature is placed a few millimeters below the pylorus. The muscular layer is sutured and the skin is clipped.
An hour later, 200 mg/kg of aspirin dispersed in a 1% suspension of methyl cellulose in water to which 150 millimoles of hydrochloric acid have been added are administered orally in a volume of 0.5 cc/100 g.
Two hours after this last administration, the animals are sacrificed by means of carbon dioxide.
Before removing the stomach, a ligature is placed above the cardia.
The gastric fluid is collected in order to measure its pH for the treated animals and the control animals.

mice = test: Acute toxicity, LD50 lethal dose after oral administration to mice; settings: orally
Description: as §1, §2

Question: Which “Ulcerization % Protection As Compared with the Controls” value ([1]; 100 mg/kg) does the source give for `COc1cc(OC)c(C(=O)CC(O)C(=O)O)cc1OC` (centres unmarked) [Example 1, 4-(2,4,5-trimethoxyphenyl)-4-oxo-2-hydroxy butanoic acid] here?
Answer: 43%

Question: What about the “pH of the Gastric Fluid, Treated Animals” value ([1]; 100 mg/kg) of the same compound?
Answer: 2.5

Question: And the LD50 [2]?
Answer: 1000 mg/kg

Question: Which “Ulcerization % Protection As Compared with the Controls” value ([1]; 4 mg/kg) does the source give for `COc1cc(OC)c(C(=O)/C=C/C(=O)O)cc1OC` [Example 2, (E) 4-(2,4,5-trimethoxyphenyl)-4-oxo-2-butenoic acid] here?
Answer: 72%

Question: And the “pH of the Gastric Fluid, Treated Animals” value ([1]; 4 mg/kg)?
Answer: 3.6

Question: And the “Ulcerization % Protection As Compared with the Controls” value ([1]; 20 mg/kg)?
Answer: 100%

Question: And the “pH of the Gastric Fluid, Treated Animals” value ([1]; 20 mg/kg)?
Answer: 4.6

Question: What about the LD50 [2] of the same compound?
Answer: 600 mg/kg

Question: Which results are given for `COc1cc(C(=O)CC(O)C(=O)O)cc(OC)c1OC` (centres unmarked) [Example 3, 4-(3,4,5-trimethoxyphenyl)-4-oxo-2-hydroxy butanoic acid]?
Answer: Ulcerization % Protection As Compared with the Controls ([1]; 100 mg/kg): 45%; pH of the Gastric Fluid, Treated Animals ([1]; 100 mg/kg): 3.7; LD50 [2]: 1000 mg/kg

Question: Which results are given for `COc1cc(C(=O)/C=C/C(=O)O)cc(OC)c1OC` [Example 4, (E)-4-(3,4,5-trimethoxyphenyl)-4-oxo-2-butenoic acid]?
Answer: Ulcerization % Protection As Compared with the Controls ([1]; 0.8 mg/kg): 38%; pH of the Gastric Fluid, Treated Animals ([1]; 0.8 mg/kg): 1.8; Ulcerization % Protection As Compared with the Controls ([1]; 4 mg/kg): 65%; pH of the Gastric Fluid, Treated Animals ([1]; 4 mg/kg): 3.0; Ulcerization % Protection As Compared with the Controls ([1]; 20 mg/kg): 98%; pH of the Gastric Fluid, Treated Animals ([1]; 20 mg/kg): 2.4; LD50 [2]: 600 mg/kg

Question: For `COc1cc(OC)c(C(=O)/C=C/C(=O)O)c(OC)c1` [Example 5, (E)-4-(2,4,6-trimethoxyphenyl)-4-oxo-2-butenoic acid], which LD50 [2] is on record?
Answer: 200 mg/kg

Question: Which “pH of the Gastric Fluid, Treated Animals” value (gastric fluid; 4 mg/kg) does the source give for `COc1cc(C(=O)/C=C/C(=O)O)cc(OC)c1OC` [Example 7, Morpholine salt of (E) 4-(3,4,5-trimethoxyphenyl)-4-oxo-2-butenoic acid] here?
Answer: 2

Question: And the “pH of the Gastric Fluid, Treated Animals” value (gastric fluid; 20 mg/kg)?
Answer: 2.4

Question: And the “pH of the Gastric Fluid, Treated Animals” value (gastric fluid; 100 mg/kg)?
Answer: 4.1

Question: What about the LD50 (mice) of the same compound?
Answer: > 400 mg/kg

Question: With `COc1cc(C(=O)/C=C/C(=O)O)cc(OC)c1OC` [Example 8, Sodium salt of (E)-4-(3,4,5-trimethoxyphenyl)-4-oxo-2-butenoic acid] as the compound, how does the “pH of the Gastric Fluid, Treated Animals” value (gastric fluid; 0.8 mg/kg) read?
Answer: 2.3

Question: And the “pH of the Gastric Fluid, Treated Animals” value (gastric fluid; 4 mg/kg)?
Answer: 2.2

Question: And the “pH of the Gastric Fluid, Treated Animals” value (gastric fluid; 20 mg/kg)?
Answer: 3

Question: What about the “pH of the Gastric Fluid, Treated Animals” value (gastric fluid; 100 mg/kg) of the same compound?
Answer: 4.6

Question: What about the LD50 (mice) of the same compound?
Answer: > 400 mg/kg

Question: For `COc1cc(C(=O)/C=C/C(=O)O)cc(OC)c1OC` [Example 9, Piperidine salt of (E)-4-(3,4,5-trimethoxyphenyl)-4-oxo-2-butenoic acid], which LD50 (mice) is on record?
Answer: > 400 mg/kg
